Measured values as given in patent US9371286B2, “Pharmaceutical composition with enhanced efficacy for inhibiting angiogenesis” (INDUSTRY-ACADEMIC COOPERATION FOUNDATION, YONSEI UNIVERSITY, priority 2011, dated 2016).

Key:
[1] = system: HIF-1α; assay: HIF-1α stability analysis (western blot, hypoxia); type: cell-based; conditions: HepG2 cells pretreated 30 minutes, then 1% O2 for 4 hours; for IC50: HIF-1α protein level by western blot, read-out: IC50 values of respective compounds on HIF-1 α; for hypoxia-induced HIF-1α protein accumulation: western blot
Procedure: HepG2 cells were pretreated with indicated concentrations of the synthetic derivatives for 30 minutes and then exposed to 1% O2 for 4 hours. HIF-1α and tubulin protein levels were analyzed using western blot analysis.

[2] = molecular target: T1, UQCRB (Homo sapiens, UniProt P14927); assay: Surface plasmon resonance (BIAcore) competitive binding analysis; conditions: for binding efficiency of UQCRB to biotinylated terpestacin (BT) after co-incubation: competitor 25 μM incubated with purified UQCRB protein 25 μM, BIAcore 2000; for direct binding to UQCRB: concluded from SPR competition with biotinylated terpestacin
T1 sequence (P14927 1-111): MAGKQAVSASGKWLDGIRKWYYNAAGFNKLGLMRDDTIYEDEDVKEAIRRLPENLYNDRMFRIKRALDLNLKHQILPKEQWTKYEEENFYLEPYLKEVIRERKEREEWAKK
Procedure: SPR analysis was performed to analyze the binding of the compounds to UQCRB. Control biotin and biotinylated terpestacin (BT) were sequentially immobilized onto the surface of a streptavidin-coated sensor chip and the apparent binding affinities were calculated by subtraction of resonance values of UQCRB binding to control biotin from those of UQCRB binding to BT. For competitive binding analysis, the compounds were each incubated with the UQCRB protein, and then the complexes were injected into flow cells of the sensor chip.
In order to further investigate the binding of A1893 and A1938 to UQCRB, the present inventors performed SPR (BIAcore) analysis. Control biotin and biotinylated terpestacin were sequentially immobilized onto the surface of a streptavidin-coated sensor chip. Competitive binding molecules (A1893 and A1938, 25 μM) were incubated with the purified UQCRB protein (25 μM) in the buffer (10 mM HEPES, 150 mM NaCl, 3 mM EDTA (pH 7.4)), and then UQCRB-competitive binding molecule complexes were injected onto the sensor chip at a flow rate of 30 μl/min. The surface of the sensor chip was regenerated by the injection of 5 μl of the regeneration buffer (50 mM NaOH). Molecular interaction analysis was performed using the BIAcore 2000 system (BIAcore AB), and the apparent binding affinities were calculated by the subtraction of resonance values of UQCRB binding to control biotin from those of UQCRB binding to biotinylated terpestacin. For competitive binding analysis, terpestacin and the compounds of the present invention were each incubated with the UQCRB protein, and then the complexes were injected into flow cells of the sensor chip.

[3] = system: HepG2 cells; assay: Mitochondrial ROS generation analysis (DCF fluorescence); type: cell-based; conditions: HepG2 cells pretreated 30 minutes, then 1% O2 for 10 minutes
Procedure: Intracellular ROS levels were determined by the DCF fluorescence. HepG2 cells were pretreated with the compounds for 30 minutes, and then exposed to 1% O2 for 10 minutes. A1893 and A1938 suppressed hypoxia-induced mitochondrial ROS generation, which confirmed that A1893 and A1938 modulate the O2 sensing function of UQCRB.
The increase in ROS generation due to complex III during hypoxia triggers HIF-1α stabilization, and consequently mediates the expression of its target genes such as VEGF. UQCRB, which is an important component in mitochondrial complex III, acts as an O2 sensor and mediates hypoxia-induced tumor angiogenesis. In order to determine whether anti-angiogenic activity of A1893 and A1938 is associated with the modulation of the O2 sensing function of UQCRB, the present inventors investigated the mitochondrial ROS-mediated hypoxic signal transmission procedure of A1893 and A1938. HepG2 liver cancer cells were pretreated with A1893 and A1938 for 30 minutes, and then exposed to 1% O2 for 10 minutes. Intracellular ROS levels were determined by the DCF fluorescence. A1893 and A1938 suppressed the hypoxia-induced mitochondrial ROS generation in HepG2 cells in a dose-dependent manner (FIG. 5).

[4] = system: HUVECs; assay: Invasiveness analysis (Transwell, VEGF-induced); type: cell-based, human; conditions: VEGF 30 ng/ml, 2.5 μM and 5 μM, 18 hours
Procedure: (§1) Serum-starved HUVECs were treated with VEGF (30 ng/mL) with or without A1893 or A1938 and then the in vitro angiogenesis analysis was performed.
Serum-starved human umbilical vein endothelial cells (HUVECs) were treated with VEGF with or without A1893 or A1938, and then the in vitro angiogenesis analysis was performed. The invasiveness of HUVECs was investigated using the Transwell chamber system with 8.0-μm pore-sized polycarbonate filter (Corning Costar). First, a lower portion of the filter was coated with 10 μl gelatin (10 mg/ml) for 1 hour, and an upper portion of the filter was coated with 10 μl Matrigel (3 mg/ml) for 2 hours. Then, 600 μl of the EBM-2 medium was put into the Transwell, and then, VEGF (30 ng/ml) and the compound of the present invention DPCN (2.5 μM and 5 μM) were added thereto. The coated filter was placed on the Transwell, and HUVECs (1×10^5 cells/well) were inoculated on the upper portion of the filter, following by incubation for 18 hours. After that, the cells were fixed with 70% methanol, and then stained with hematoxylin/eosin. Then, the total number of invaded cells was measured using an optical microscope at 100× magnification.

[5] = system: HUVECs; assay: Viability of endothelial cells; type: cell-based, human
[6] = system: HUVECs; assay: Tube formation analysis on Matrigel; type: cell-based, human; conditions: VEGF 30 ng/ml, 2.5 μM and 5 μM, 8 hours
Procedure: as §1
Tube formation analysis was performed using HUVECs growing on Matrigel (Collaborative Biomedical Products). The 48-well plate was coated with 150 μl Matrigel, followed by polymerization at 37 for 2 hours. Then, human umbilical vein endothelial cells (HUVECs, 1×10^5 cells/well) were inoculated on Matrigel, and then VEGF (30 ng/ml) and the compound of the present invention DPCN (2.5 μM and 5 μM) were added thereto. The morphological change of cells was observed while the cells were incubated at room temperature for 8 hours. Tube formation was quantified by measuring the number of connected cells in randomly selected fields and dividing the measured number by the total number of cells in the same field.

[7] = stated with the invasion analysis
[8] = stated with the tube formation analysis

| Structure (SMILES) | IC50 [1] | also measured |
| --- | --- | --- |
| CC(C)(C)c1ccc(S(=O)(=O)Nc2ccc(O)cc2F)cc1 [A2007, 4-tert-butyl-N-(2-fluoro-4-hydroxy-phenyl)-benzene-sulfonamide] | 10 µM | – |
| Cc1cc(NS(=O)(=O)c2ccc(-c3ccccc3)cc2)ccc1O [A2041, biphenyl-4-sulfonic acid (4-hydrox-3-methyl-phenyl)-amide] | 10 µM | – |
| O=S(=O)(NC1CCC(CCO)CC1)c1ccc2ccccc2c1 (stereo not drawn) [A2069, naphthalene-2-sulfonic acid [4-(2-hydroxy-ethyl)-cyclohenxyl]-amide] | 10 µM | – |
| O=S(=O)(NCCc1ccc(O)cc1)c1ccc(-c2ccccc2)cc1 [A2060, biphenyl-4-sulfonic acid [2-(4-hydroxy-phenyl)-ethyl]-amide] | 10 µM | – |
| O=S(=O)(Nc1ccc(O)cc1)c1ccc(-c2ccccc2)cc1 [A1938, biphenyl-4-sulfonic acid (4-hydroxy-phenyl)-amide] | 5 µM | binding efficiency of UQCRB to biotinylated terpestacin (BT) after co-incubation [2]: significantly decreased; direct binding to UQCRB [2]: directly bind to UQCRB; hypoxia-induced mitochondrial ROS generation [3]: suppressed; hypoxia-induced HIF-1α protein accumulation [1]: greatly reduced; VEGF-induced invasion of HUVECs [4]: inhibited VEGF-induced invasion; viability of endothelial cells [5, 7]: without affecting viability; viability of endothelial cells [5, 8]: without affecting viability; tube formation of HUVECs [6]: inhibited the tube formation |
| CC(C)(C)c1ccc(S(=O)(=O)Nc2ccc(O)cc2[N+](=O)[O-])cc1 [A2037, 4-tert-butyl-N-(2-nitro-4-hydroxy-phenyl)-benzene-sulfonamide] | 10 µM | – |
| O=S(=O)(Nc1cccc(O)c1)c1ccc(-c2ccccc2)cc1 [A2033, biphenyl-4-sulfonic acid (3-hydroxy-phenyl)-amide] | 5 µM | – |
| CC(C)(C)c1ccc(S(=O)(=O)Nc2ccc(O)cc2)cc1 [A1893, 4-tert-butyl-N-(4-hydroxy-phenyl)-benzene-sulfonamide] | 5 µM | binding efficiency of UQCRB to biotinylated terpestacin (BT) after co-incubation [2]: significantly decreased; direct binding to UQCRB [2]: directly bind to UQCRB; hypoxia-induced mitochondrial ROS generation [3]: suppressed; hypoxia-induced HIF-1α protein accumulation [1]: greatly reduced; VEGF-induced invasion of HUVECs [4]: inhibited VEGF-induced invasion; viability of endothelial cells [5, 7]: without affecting viability; viability of endothelial cells [5, 8]: without affecting viability; tube formation of HUVECs [6]: inhibited the tube formation |
| CCc1ccc(S(=O)(=O)Nc2cccc3ccc(O)cc23)cc1 [A1891, 4-ethyl-N-(7-hydroxy-naphthalen-1-yl)-benzene-sulfonamide] | 10 µM | – |
| C/C1=C\C[C@]2(C)C(=O)C(O)=C([C@H](C)CO)[C@H]2C/C=C(\C)[C@@H](O)CC/C(C)=C/CC1 [terpestacin, reference compound] | – | binding efficiency of UQCRB to biotinylated terpestacin (BT) after co-incubation [2]: significantly decreased |
| O=S(=O)(Nc1ccc(O)cc1F)c1ccc(-c2ccccc2)cc1 [A2008, biphenyl-4-sulfonic acid (2-fluoro-4-hydroxy-phenyl)-amide] | 5 µM | – |
| O=S(=O)(Nc1cc(Cl)c(O)c(Cl)c1)c1ccc2ccccc2c1 [A2044, naphthalene-3-sulfonic acid (3,5-dichloro-4-hydroxy-phenyl)-amide] | 10 µM | – |
| CC(C)(C)c1ccc(S(=O)(=O)Nc2ccc(O)c(F)c2)cc1 [A2010, 4-tert-butyl-N-(3-fluoro-4-hydroxy-phenyl)-benzene-sulfonamide] | 10 µM | – |
| CC(C)(C)c1ccc(S(=O)(=O)Nc2ccc(O)c(Cl)c2)cc1 [A2003, 4-tert-butyl-N-(3-chloro-4-hydroxy-phenyl)-benznene-sulfonamide] | 10 µM | – |
| O=S(=O)(Nc1ccc(O)cc1Cl)c1ccc(-c2ccccc2)cc1 [A2001, biphenyl-4-sulfonic acid (2-chloro-4-hydroxy-phenyl)-amide] | 5 µM | – |
| O=S(=O)(Nc1cc(Cl)c(O)c(Cl)c1)c1ccc(-c2ccccc2)cc1 [A2043, biphenyl-4-sulfonic acid (3,5-dichloro-4-hydroxy-phenyl)-amide] | 10 µM | – |
| CC(C)(C)c1ccc(S(=O)(=O)Nc2ccc(O)cc2Cl)cc1 [A2000, 4-tert-butyl-N-(2-chloro-4-hydroxy-phenyl)-benzene-sulfonamide] | 10 µM | – |
| CC(C)(C)c1ccc(S(=O)(=O)Nc2cc(Cl)c(O)c(Cl)c2)cc1 [A2006, 4-tert-butyl-N-(3,5-dichloro-4-hydroxy-phenyl)-benzene-sulfonamide] | 10 µM | – |
| O=[N+]([O-])c1cc(O)ccc1NS(=O)(=O)c1ccc(-c2ccccc2)cc1 [A2038, biphenyl-4-sulfonic acid (2-nitro-4-hydroxy-phenyl)-benzene-sulfonamide] | 5 µM | – |
| Cc1cc(NS(=O)(=O)c2ccc(-c3ccccc3)cc2)ccc1O [A2040, biphenyl-4-sulfonic acid (4-hydroxy-3-methyl-phenyl)-amide] | 5 µM | – |
